Experimental data from publication PMC8765781, “A platform of assays for the discovery of anti-Zika small-molecules with activity in a 3D-bioprinted outer-blood-retina model” (PLoS ONE, 2022).
Like-named read-outs stand apart in the source and are kept apart here. *1 amine or outer side, *2 acyl side, *3 side chain or, on linkers, in order; H or OH if unused. Where a SMILES comes first, the peptide text is derived from it. [ ]: non-standard residue; d: D form. The star is where a group is joined. ξ: configuration not given here. X2 = CCC(C)(N*)C(=O)C1CC[C@@H](C(=O)N[CH]Cc2ccccc2)N1; X1 = O=C([C@@H]1CC(O)CN1[*:1])[*:2]; aIle = CC[C@@H](C)[C@H](N)C(=O)O; Thr(3ξ) = CC(O)[C@H](N)C(=O)O; ξIva = CCC(C)(N)C(=O)O; Aib = CC(C)(N)C(=O)O

Columns and labels:
[1] = system: ZIKV
[2] = system: WNV (Kern515/WN02)
[3] = system: YFV (YFV 17D)
[4] = system: DENV (Dengue virus type 2, strain New Guinea C)
[5] = system: ZIKV-mCherry (Cambodian strain FSS13025); experiment: microbe, parasite or virus in culture; assay type: cell-based, Zika virus; details: for AC50: Zika virus, Vero
[6] = system: mCherry-ZIKV in human neuronal progenitor cells; experiment: microbe, parasite or virus in culture; assay type: cell-based, Zika virus
[7] = system: ZIKV-RLuc (Cambodian strain FSS13025); experiment: microbe, parasite or virus in culture; assay type: cell-based, Zika virus; details: Zika virus, Vero, 48 h, read-out: Rluc-ZIKV (ZIKV Antiviral Assays), IC50
[8] = system: caspase-3 activity induced by ZIKV in Vero cells; experiment: cells; assay type: cell-based; details: Zika virus, read-out: Caspase 3 (ZIKV Antiviral Assays), IC50
[9] = in vitro; details: African green monkey
[10] = system: wild-type ZIKV (Ugandan MR766 strain) in Vero cells; experiment: ZIKV cytopathic effect (CPE) inhibition qHTS assay, CellTiter-Glo readout; assay type: cell-based, Zika virus; details: for AC50 / IC50: Zika virus; for IC50: read-out: ZIKV-infection (CPE, ZIKV Antiviral Assays), IC50
[11] = read-out: Log AC50 (M) (converted)
[12] = Vero, read-out: Log AC50 (M) (converted)
[13] = ZIKV-infected Vero cells, 48 hr, unit inferred
[14] = Vero, from Hill fit of the response curve, 50% of maximum activity response, 194 cherry-picked compounds, protocol name not given, read-out: AC50
[15] = Vero, potency in log units (Molar) from Hill fit of the response curve, 194 cherry-picked compounds, protocol name not given, read-out: Log AC50 (converted)
[16] = Vero cells, wild-type ZIKV MOI 1, 48 hr, unit inferred
[17] = difference between neutral response and maximum compound response

Row | Compound | CC-v2 (curve class of the dose response curve) [5] | Efficacy (difference between neutral response and maximum compound response) [5] | Max Resp (difference between neutral response and response at highest compound concentration) [5] | AC50 [5] [M] | AC50 [5, 11] [M] | IC50 [7] [µM] | IC50 ([8]; Vero, 48 h) [µM] | Efficacy [10] | AC50 ([10]; Vero) [M] | IC50 ([10]; Vero, 48 h) [µM] | AC50 [10, 12] [M] | CC50 [9] [µM] | IC50 [8, 13] [µM] | AC50 [10, 14] [M] | AC50 [10, 15] [M] | IC50 [10, 16] [µM] | Efficacy [10, 17] | other results
1 | CCN(CC)CCCC(C)Nc1ccnc2cc(Cl)ccc12 (stereo not shown) [NCGC00015256, chloroquine, reference compound] |  |  |  |  |  |  |  |  |  |  |  |  |  |  |  |  |  | ZIKV active Yes/No [1]: No; WHV active Yes/No [2]: No; SI value YFV (CC50/EC50) [3]: 1.2; YFV active Yes/No [3]: No; DENV active Yes/No [4]: No
2 | CS[C@H]1SC[C@@H]2C(=O)N(C)[C@H](C(C)C)C(=O)OC[C@H](NC(=O)c3cnc4ccccc4n3)C(=O)N[C@H](C)C(=O)N(C)[C@H]1C(=O)N(C)[C@H](C(C)C)C(=O)OC[C@H](NC(=O)c1cnc3ccccc3n1)C(=O)N[C@H](C)C(=O)N2C [NCGC00163548-03] | -1.1 | -108.47 | -100.29 | 2.99e-09 | 2.99e-09 |  |  |  |  |  |  |  |  |  |  |  |  | ZIKV active Yes/No [1]: No; WHV active Yes/No [2]: No; YFV active Yes/No [3]: No; DENV active Yes/No [4]: No; Antiviral activity in human NPC [6]: moderate antiviral activity
3 | C[C@@H]1O[C@@H](O[C@H]2[C@H](O[C@H]3[C@H](O)[C@@H](C(=O)O)O[C@@H](O[C@H]4CC[C@@]5(C)C(CC[C@]6(C)C5CC[C@]57OC[C@@]8(CCC(C)(C)CC85)[C@H](O)C[C@]76C)C4(C)C)[C@@H]3O[C@@H]3O[C@H](CO)[C@@H](O[C@@H]4OC[C@@H](O)[C@H](O)[C@H]4O)[C@H](O)[C@H]3O)O[C@H](CO)[C@H](O)[C@@H]2O)[C@H](O)[C@H](O)[C@H]1O (stereo partly shown) [NCGC00384492-01] | -1.4 | -52.527 | -99.118 |  |  | 5.61 | 5.64 | -27.701 | 1.1e-05 | 11 | 1.1e-05 |  |  |  |  |  |  | CC50 at 48 h ([9]; Vero cells): > 50 µM
4 | C=C(C)C(=O)O[C@H]1CC2=CC(C/C(C)=C/[C@H]3OC(=O)C(=C)[C@H]13)OC2=O (stereo partly shown) [NCGC00384526-01] | 4 | 0 | -97.701 |  |  | 10.2 | 6.46 | -93.113 | 1.43e-05 | 14.3 | 1.43e-05 | > 50 |  |  |  |  |  | CC-v2 (curve class classification of the dose response curve) [10]: -1.1
5 | C=C1CC[C@@]2(OC1)O[C@H]1CC3C4CC=C5C[C@@H](O[C@@H]6O[C@@H](C)[C@H](O)[C@@H](O)[C@H]6O)C[C@@H](O[C@@H]6O[C@H](C)[C@H](O)[C@H](O)[C@H]6O[C@@H]6O[C@@H](C)[C@H](O)[C@@H](O)[C@H]6O)[C@]5(C)C4CC[C@]3(C)[C@H]1[C@@H]2C (stereo partly shown) [NCGC00384710-01] | -1.2 | -59.162 | -100.305 | 7.14e-07 | 7.14e-07 | 6.95 |  |  |  |  |  |  | 1.24 | 1.23e-05 | 1.23e-05 | 12.3 | -26.266 | CC50 at 48 h [9]: > 50 µM
6 | C=C(C)C(C)C1OC23CC4(CO2)C(CCC2C5(C)CCC(OC6OCC(O)C(OC7OC(CO)C(O)C(OC8OCC(O)C(O)C8O)C7O)C6OC6OC(CO)C(O)C6O)C(C)(C)C5CCC24C)C3C(C)(O)C1OC(C)=O (stereo not shown) [NCGC00384732-01] | -1.4 | -78.707 | -96.911 |  |  | 6.95 |  |  |  |  |  |  | 0.16 | 1.38e-05 | 1.38e-05 | 13.8 | -32.277 | CC50 at 48 h [9]: > 50 µM
7 | C[C@@H]1O[C@@H](O[C@H]2[C@H](OC(=O)[C@]34CCC(C)(C)C[C@H]3C3=CCC5[C@@]6(C)C[C@H](O)[C@H](O[C@@H]7O[C@H](C(=O)O)[C@@H](O)[C@H](O)[C@H]7O)[C@@](C)(CO)C6[C@H](O)C[C@@]5(C)[C@]3(C)CC4)OC[C@H](O)[C@@H]2O)[C@H](O)[C@H](O)[C@H]1O[C@@H]1OC[C@@H](O)[C@H](O[C@@H]2O[C@@H](C)[CH][C@@H](O)[C@H]2O)[C@H]1O (stereo partly shown) [NCGC00384879-01] | -1.2 | -58.138 | -66.904 | 6.35e-10 | 6.35e-10 | 0.13 | 5.64 | -56.214 | 4.36e-06 | 4.36 | 4.36e-06 | > 50 |  |  |  |  |  | CC-v2 (curve class classification of the dose response curve) [10]: -3
8 | CC1(C)CC[C@]2(C(=O)O)CC[C@]3(C)C(=CCC4[C@@]5(C)C[C@H](O)[C@H](O[C@@H]6OC[C@H](O)[C@H](O)[C@H]6O)[C@@](C)(CO)C5CC[C@]43C)[C@@H]2C1 (stereo partly shown) [NCGC00384893-01] | -1.4 | -59.557 | -100.29 |  |  | 9.81 | > 48 | -24.539 | 5.44e-06 | 5.44 | 5.44e-06 |  |  |  |  |  |  | CC50 at 48 h ([9]; Vero cells): > 50 µM
9 | C[C@H]1CC[C@@]2(OC1)O[C@H]1CC3C4CC[C@H]5C[C@@H](O[C@@H]6O[C@H](CO)[C@H](O[C@@H]7O[C@H](CO)[C@@H](O)[C@H](O[C@@H]8OC[C@@H](O)[C@H](O)[C@H]8O)[C@H]7O[C@@H]7O[C@H](CO)[C@@H](O)[C@H](O)[C@H]7O)[C@H](O)[C@H]6O)[C@H](O)C[C@]5(C)C4=CC(=O)[C@]3(C)[C@H]1[C@@H]2C (stereo partly shown) [NCGC00385095-01] | -1.4 | -65.601 | -99.657 |  |  | 6.95 |  |  |  |  |  |  | 7.84 | 1.55e-05 | 1.55e-05 | 15.5 | -21.201 | CC50 at 48 h [9]: > 50 µM
10 | CC[C@@H](C)[C@H](NC(=O)C(C)(C)NC(=O)[C@H](CCC(N)=O)NC(=O)C(C)(CC)NC(=O)[C@H](Cc1c[nH]c2ccccc12)NC(C)=O)C(=O)N[C@H](C(=O)NC(C)(C)C(=O)N[C@@H](CC(C)C)C(=O)NC(C)(C)C(=O)N1CCC[C@H]1C(=O)N[C@@H](CCC(N)=O)C(=O)NC(C)(C)C(=O)N1CC(O)C[C@H]1C(=O)NC(C)(CC)C(=O)C1CC[C@@H](C(=O)N[CH]Cc2ccccc2)N1)C(C)O (stereo partly shown) [NCGC00385349-01] (Ac-W[ξIva]Q[Aib][aIle][Thr(3ξ)][Aib]L[Aib]PQ[Aib][X1]-X2) | -1.4 | -52.827 | -100.29 |  |  | 4.52 | > 48 | -36.779 | 1e-05 | 10 | 1e-05 | > 50 |  |  |  |  |  | CC-v2 (curve class classification of the dose response curve) [10]: -3
11 | CCC/C=C/C(=O)O[C@H]1CC(C)(C)CC2[C@@]13[C@H](O)C[C@]1(C)[C@@]2(CCC2[C@@]4(C)CC[C@H](O[C@@H]5O[C@H](C(=O)O)[C@@H](O)[C@H](O[C@@H]6O[C@H](CO)[C@H](O)[C@H](O)[C@H]6O[C@@H]6O[C@@H](C)[C@H](O)[C@@H](O)[C@H]6O[C@@H]6OC[C@](O)(CO)[C@H]6O)[C@H]5O[C@@H]5O[C@H](CO)[C@H](O)[C@H](O)[C@H]5O)C(C)(C)C4CC[C@]21C)O[C@H]3O (stereo partly shown) [NCGC00385970-01] | -1.3 | -68.04 | -100.305 | 2.53e-06 | 2.53e-06 | 2.23 |  |  |  |  |  | > 50 | 0.5 | 3.09e-06 | 3.09e-06 | 3.09 | -40.513 | CC-v2 (curve class classification of the dose response curve) ([10]; curve class v2 (Inglese et al. 2006)): -1.2
